Source: patent US9776995B2, “Bicyclic sulfonamide compounds as sodium channel inhibitors” (AMGEN INC., priority 2013, dated 2017)
Read-outs that look alike come from different tables or passages of the source.

Key:
Nav 1.5 = Nav 1.5 (Homo sapiens (Human), UniProt Q14524); assay: in-vitro Nav 1.5 PX data; conditions: read-out: Nav 1.5 PX IC50
Nav 1.7 = Nav 1.7 (Homo sapiens (Human), UniProt Q15858); assay: in-vitro Nav 1.7 PX data; format: cell-based
Chain of Nav 1.7 (Q15858 whole entry): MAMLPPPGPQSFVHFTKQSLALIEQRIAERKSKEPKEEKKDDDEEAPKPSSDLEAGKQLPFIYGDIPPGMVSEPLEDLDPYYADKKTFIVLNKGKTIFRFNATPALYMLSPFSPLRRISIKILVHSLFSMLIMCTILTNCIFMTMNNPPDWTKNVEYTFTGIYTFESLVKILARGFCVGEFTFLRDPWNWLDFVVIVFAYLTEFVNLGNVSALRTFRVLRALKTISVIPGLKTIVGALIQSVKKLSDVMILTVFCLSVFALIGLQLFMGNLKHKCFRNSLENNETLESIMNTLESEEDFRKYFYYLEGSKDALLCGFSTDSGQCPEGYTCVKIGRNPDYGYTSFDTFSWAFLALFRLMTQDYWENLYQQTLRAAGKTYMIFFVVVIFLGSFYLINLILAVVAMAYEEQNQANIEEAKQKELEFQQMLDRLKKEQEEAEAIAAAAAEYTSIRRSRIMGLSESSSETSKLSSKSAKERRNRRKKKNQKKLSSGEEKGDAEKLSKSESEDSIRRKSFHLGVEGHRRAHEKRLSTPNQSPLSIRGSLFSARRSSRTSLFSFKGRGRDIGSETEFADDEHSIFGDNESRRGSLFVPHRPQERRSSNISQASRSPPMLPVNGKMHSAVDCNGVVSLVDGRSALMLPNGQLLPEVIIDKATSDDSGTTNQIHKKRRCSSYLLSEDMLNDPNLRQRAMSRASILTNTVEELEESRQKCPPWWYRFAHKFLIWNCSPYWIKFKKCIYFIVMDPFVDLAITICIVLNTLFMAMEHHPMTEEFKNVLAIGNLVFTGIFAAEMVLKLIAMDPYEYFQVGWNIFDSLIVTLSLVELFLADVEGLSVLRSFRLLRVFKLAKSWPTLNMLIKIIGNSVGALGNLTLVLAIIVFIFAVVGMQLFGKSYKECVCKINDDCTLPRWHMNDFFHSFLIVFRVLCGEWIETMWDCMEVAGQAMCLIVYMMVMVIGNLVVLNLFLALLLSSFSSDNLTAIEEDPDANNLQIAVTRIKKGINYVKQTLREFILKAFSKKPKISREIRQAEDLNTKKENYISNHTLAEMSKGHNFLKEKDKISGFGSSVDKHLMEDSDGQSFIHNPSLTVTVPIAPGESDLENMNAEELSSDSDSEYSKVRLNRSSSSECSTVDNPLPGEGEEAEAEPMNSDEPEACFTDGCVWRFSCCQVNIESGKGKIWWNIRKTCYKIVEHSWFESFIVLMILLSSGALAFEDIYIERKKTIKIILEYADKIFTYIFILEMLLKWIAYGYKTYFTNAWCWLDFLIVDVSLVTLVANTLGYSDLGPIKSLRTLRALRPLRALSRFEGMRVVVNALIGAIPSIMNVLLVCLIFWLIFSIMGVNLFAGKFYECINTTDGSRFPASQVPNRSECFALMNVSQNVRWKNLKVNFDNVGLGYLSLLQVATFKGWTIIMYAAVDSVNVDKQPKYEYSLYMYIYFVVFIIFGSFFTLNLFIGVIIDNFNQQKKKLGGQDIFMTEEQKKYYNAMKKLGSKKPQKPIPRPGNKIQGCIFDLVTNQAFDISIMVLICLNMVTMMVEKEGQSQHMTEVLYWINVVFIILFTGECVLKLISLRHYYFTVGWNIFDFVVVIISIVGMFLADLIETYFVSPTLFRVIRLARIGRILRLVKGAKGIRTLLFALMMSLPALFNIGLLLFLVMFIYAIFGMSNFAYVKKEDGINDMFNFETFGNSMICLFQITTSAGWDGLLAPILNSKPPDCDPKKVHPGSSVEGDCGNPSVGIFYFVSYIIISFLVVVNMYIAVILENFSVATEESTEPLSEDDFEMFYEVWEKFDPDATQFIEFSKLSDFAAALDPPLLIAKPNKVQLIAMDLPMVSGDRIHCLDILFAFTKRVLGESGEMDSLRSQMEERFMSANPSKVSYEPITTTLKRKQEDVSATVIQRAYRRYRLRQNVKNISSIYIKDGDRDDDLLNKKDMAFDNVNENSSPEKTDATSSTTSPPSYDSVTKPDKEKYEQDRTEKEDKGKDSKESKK

Chain of Nav 1.5 (Q14524 whole entry): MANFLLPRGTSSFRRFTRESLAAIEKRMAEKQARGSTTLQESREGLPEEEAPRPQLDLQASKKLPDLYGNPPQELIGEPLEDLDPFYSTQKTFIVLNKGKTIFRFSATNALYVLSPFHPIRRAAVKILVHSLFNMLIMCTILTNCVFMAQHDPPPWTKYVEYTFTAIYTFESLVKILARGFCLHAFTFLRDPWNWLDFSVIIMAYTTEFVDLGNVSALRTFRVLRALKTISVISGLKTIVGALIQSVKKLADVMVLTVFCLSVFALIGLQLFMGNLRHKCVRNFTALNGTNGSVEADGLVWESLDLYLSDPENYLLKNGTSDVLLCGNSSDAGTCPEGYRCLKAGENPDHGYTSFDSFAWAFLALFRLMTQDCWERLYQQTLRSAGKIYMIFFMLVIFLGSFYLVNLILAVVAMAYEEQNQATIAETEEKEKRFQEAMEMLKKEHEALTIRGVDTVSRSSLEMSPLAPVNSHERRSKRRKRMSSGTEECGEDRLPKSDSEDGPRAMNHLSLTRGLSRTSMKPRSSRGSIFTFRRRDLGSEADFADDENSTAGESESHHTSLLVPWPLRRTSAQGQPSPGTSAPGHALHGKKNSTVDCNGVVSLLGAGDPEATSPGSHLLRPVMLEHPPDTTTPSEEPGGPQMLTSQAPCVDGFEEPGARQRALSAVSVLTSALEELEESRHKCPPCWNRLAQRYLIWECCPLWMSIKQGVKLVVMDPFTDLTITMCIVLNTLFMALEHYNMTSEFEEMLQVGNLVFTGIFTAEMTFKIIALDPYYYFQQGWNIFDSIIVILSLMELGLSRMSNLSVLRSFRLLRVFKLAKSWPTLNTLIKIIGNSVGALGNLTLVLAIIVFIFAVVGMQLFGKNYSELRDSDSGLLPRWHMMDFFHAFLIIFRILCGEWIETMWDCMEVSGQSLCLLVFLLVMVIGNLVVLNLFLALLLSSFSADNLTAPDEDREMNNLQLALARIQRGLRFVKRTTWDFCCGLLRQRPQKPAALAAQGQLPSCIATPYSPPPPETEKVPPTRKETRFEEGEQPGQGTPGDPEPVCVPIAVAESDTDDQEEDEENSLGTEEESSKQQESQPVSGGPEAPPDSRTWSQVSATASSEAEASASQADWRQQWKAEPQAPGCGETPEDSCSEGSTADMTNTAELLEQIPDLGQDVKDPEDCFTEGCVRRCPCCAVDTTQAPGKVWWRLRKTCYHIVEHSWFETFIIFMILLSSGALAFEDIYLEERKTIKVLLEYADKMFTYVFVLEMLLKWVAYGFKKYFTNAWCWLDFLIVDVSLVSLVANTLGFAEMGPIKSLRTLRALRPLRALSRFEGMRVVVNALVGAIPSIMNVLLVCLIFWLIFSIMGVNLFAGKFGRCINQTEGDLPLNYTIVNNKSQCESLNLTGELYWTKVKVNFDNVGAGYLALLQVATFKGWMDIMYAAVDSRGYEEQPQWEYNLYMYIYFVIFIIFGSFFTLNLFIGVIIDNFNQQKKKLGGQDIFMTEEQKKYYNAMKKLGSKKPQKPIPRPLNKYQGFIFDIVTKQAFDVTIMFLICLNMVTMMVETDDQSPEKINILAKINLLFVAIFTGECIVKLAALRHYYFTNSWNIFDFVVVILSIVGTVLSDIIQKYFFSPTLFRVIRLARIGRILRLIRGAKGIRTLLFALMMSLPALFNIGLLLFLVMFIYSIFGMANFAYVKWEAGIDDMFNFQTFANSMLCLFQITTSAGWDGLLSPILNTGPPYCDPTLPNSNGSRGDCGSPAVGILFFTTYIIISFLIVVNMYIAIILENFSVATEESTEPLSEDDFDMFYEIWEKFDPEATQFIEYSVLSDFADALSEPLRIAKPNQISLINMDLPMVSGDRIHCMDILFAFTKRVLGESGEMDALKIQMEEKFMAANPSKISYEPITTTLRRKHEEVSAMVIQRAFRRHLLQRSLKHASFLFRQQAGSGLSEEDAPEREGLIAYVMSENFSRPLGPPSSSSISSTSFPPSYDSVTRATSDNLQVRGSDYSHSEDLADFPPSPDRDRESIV

COc1cc(-c2ccccc2C)c(C#N)cc1-c1nccc2cc(S(=O)(=O)Nc3ccncn3)ccc12 [Example 157, 1-(2-cyano-5-methoxy-2′-methyl-4-biphenylyl)-N-4-pyrimidinyl-6-isoquinolinesulfonamide]
IC50 (Nav 1.5; in-vitro Nav 1.5 PX data): > 10 µM
IC50 (Nav 1.7; in-vitro Nav 1.7 PX data): 206 nM

COc1cc(-c2ccc(F)c(Cl)c2)c(C#N)cc1-c1nccc2cc(S(=O)(=O)Nc3ccncn3)ccc12 [Example 158, 1-(3′-chloro-2-cyano-4′-fluoro-5-methoxy-4-biphenylyl)-N-4-pyrimidinyl-6-isoquinolinesulfonamide]
IC50 (Nav 1.5; in-vitro Nav 1.5 PX data): 5.85 µM
IC50 (Nav 1.7; in-vitro Nav 1.7 PX data): 19.4 nM

COc1cc(-c2ccc(C)c(Cl)c2)c(C#N)cc1-c1nccc2cc(S(=O)(=O)Nc3ccncn3)ccc12 [Example 159, 1-(3′-chloro-2-cyano-5-methoxy-4′-methyl-4-biphenylyl)-N-4-pyrimidinyl-6-isoquinolinesulfonamide]
IC50 (Nav 1.5; in-vitro Nav 1.5 PX data): > 30 µM
IC50 (Nav 1.7; in-vitro Nav 1.7 PX data): 38.7 nM

COc1cc(-c2cc(C)cc(Cl)c2)c(C#N)cc1-c1nccc2cc(S(=O)(=O)Nc3ccncn3)ccc12 [Example 160, 1-(3′-chloro-2-cyano-5-methoxy-5′-methyl-4-biphenylyl)-N-4-pyrimidinyl-6-isoquinolinesulfonamide]
IC50 (Nav 1.5; in-vitro Nav 1.5 PX data): 18.3 µM
IC50 (Nav 1.7; in-vitro Nav 1.7 PX data): 13.8 nM

COc1cc(-c2ccc(Cl)c(C)c2)c(C#N)cc1-c1nccc2cc(S(=O)(=O)Nc3ccncn3)ccc12 [Example 161, 1-(4′-chloro-2-cyano-5-methoxy-3′-methyl-4-biphenylyl)-N-4-pyrimidinyl-6-isoquinolinesulfonamide]
IC50 (Nav 1.5; in-vitro Nav 1.5 PX data): > 30 µM
IC50 (Nav 1.7; in-vitro Nav 1.7 PX data): 17.4 nM

COc1ccc(F)cc1-c1cc(OC)c(-c2nccc3cc(S(=O)(=O)Nc4ccncn4)ccc23)cc1C#N [Example 162, 1-(2-cyano-5′-fluoro-2′,5-dimethoxy-4-biphenylyl)-N-4-pyrimidinyl-6-isoquinolinesulfonamide]
IC50 (Nav 1.5; in-vitro Nav 1.5 PX data): > 10 µM
IC50 (Nav 1.7; in-vitro Nav 1.7 PX data): 470 nM

COc1cc(-c2ccc(C)c(F)c2)c(C#N)cc1-c1nccc2cc(S(=O)(=O)Nc3ccncn3)ccc12 [Example 163, 1-(2-cyano-3′-fluoro-5-methoxy-4′-methyl-4-biphenylyl)-N-4-pyrimidinyl-6-isoquinolinesulfonamide]
IC50 (Nav 1.5; in-vitro Nav 1.5 PX data): > 10 µM
IC50 (Nav 1.7; in-vitro Nav 1.7 PX data): 92.1 nM

COc1cc(Oc2ccccc2C)ccc1-c1nccc2cc(S(=O)(=O)Nc3ccncn3)ccc12 [Example 170, 1-(2-methoxy-4-(2-methylphenoxy)phenyl)-N-4-pyrimidinyl-6-isoquinolinesulfonamide]
IC50 (Nav 1.5; in-vitro Nav 1.5 PX data): > 10 µM
IC50 (Nav 1.7; in-vitro Nav 1.7 PX data): 171 nM

COc1cc(-c2ccc(F)c(F)c2)c(C)cc1-c1nccc2cc(S(=O)(=O)Nc3nncs3)ccc12 [Example 171, 1-(3′,4′-difluoro-5-methoxy-2-methyl-4-biphenylyl)-N-1,3,4-thiadiazol-2-yl-6-isoquinolinesulfonamide]
IC50 (Nav 1.5; in-vitro Nav 1.5 PX data): > 10 µM
IC50 (Nav 1.7; in-vitro Nav 1.7 PX data): 33.4 nM

COc1cc(-c2cc(F)cc(F)c2)c(C)cc1-c1nccc2cc(S(=O)(=O)Nc3nncs3)ccc12 [Example 172, 1-(3′,5′-difluoro-5-methoxy-2-methyl-4-biphenylyl)-N-1,3,4-thiadiazol-2-yl-]
IC50 (Nav 1.5; in-vitro Nav 1.5 PX data): > 10 µM
IC50 (Nav 1.7; in-vitro Nav 1.7 PX data): 34.9 nM

COc1cc(Oc2ccc(F)cc2)ccc1-c1nccc2cc(S(=O)(=O)Nc3nncs3)ccc12 [Example 174, 1-(4-(4-fluorophenoxy)-2-methoxyphenyl)-N-1,3,4-thiadiazol-2-yl-6-isoquinolinesulfonamide]
IC50 (Nav 1.5; in-vitro PX (PatchXpress) data): > 10 µM
IC50 (Nav 1.7; in-vitro PX (PatchXpress) data): 141 nM

COc1cc(Oc2ccc(F)c(F)c2)ccc1-c1nccc2cc(S(=O)(=O)Nc3ccncn3)ccc12 [Example 175, 1-(4-(3,4-difluorophenoxy)-2-methoxyphenyl)-N-4-pyrimidinyl-6-isoquinolinesulfonamide]
IC50 (Nav 1.5; in-vitro PX (PatchXpress) data): > 10 µM
IC50 (Nav 1.7; in-vitro PX (PatchXpress) data): 197 nM

COc1cc(Oc2ccc(C)c(C)c2)ccc1-c1nccc2cc(S(=O)(=O)Nc3ccncn3)ccc12 [Example 176, 1-(4-(3,4-dimethylphenoxy)-2-methoxyphenyl)-N-4-pyrimidinyl-6-isoquinolinesulfonamide]
IC50 (Nav 1.5; in-vitro PX (PatchXpress) data): > 10 µM
IC50 (Nav 1.7; in-vitro PX (PatchXpress) data): 204 nM

COc1cc(Oc2ccc(C)c(F)c2)ccc1-c1nccc2cc(S(=O)(=O)Nc3ccncn3)ccc12 [Example 177, 1-(4-(3-fluoro-4-methylphenoxy)-2-methoxyphenyl)-N-4-pyrimidinyl-6-isoquinolinesulfonamide]
IC50 (Nav 1.5; in-vitro PX (PatchXpress) data): > 10 µM
IC50 (Nav 1.7; in-vitro PX (PatchXpress) data): 99.3 nM

COc1cc(Oc2cc(C)cc(F)c2)ccc1-c1nccc2cc(S(=O)(=O)Nc3ccncn3)ccc12 [Example 179, 1-(4-(3-fluoro-5-methylphenoxy)-2-methoxyphenyl)-N-4-pyrimidinyl-6-isoquinolinesulfonamide]
IC50 (Nav 1.5; in-vitro PX (PatchXpress) data): > 10 µM
IC50 (Nav 1.7; in-vitro PX (PatchXpress) data): 77 nM

COc1cc(Oc2cc(C)cc(C)c2)ccc1-c1nccc2cc(S(=O)(=O)Nc3ccncn3)ccc12 [Example 180, 1-(4-(3,5-dimethylphenoxy)-2-methoxyphenyl)-N-4-pyrimidinyl-6-isoquinolinesulfonamide]
IC50 (Nav 1.5; in-vitro PX (PatchXpress) data): > 10 µM
IC50 (Nav 1.7; in-vitro PX (PatchXpress) data): 520 nM

COc1cc(Oc2cccc(C)c2)ccc1-c1nccc2cc(S(=O)(=O)Nc3ccncn3)ccc12 [Example 181, 1-(2-methoxy-4-(3-methylphenoxy)phenyl)-N-4-pyrimidinyl-6-isoquinolinesulfonamide]
IC50 (Nav 1.5; in-vitro PX (PatchXpress) data): > 10 µM
IC50 (Nav 1.7; in-vitro PX (PatchXpress) data): 126 nM

COc1ccc(Oc2ccc(-c3nccc4cc(S(=O)(=O)Nc5ccncn5)ccc34)c(OC)c2)cc1 [Example 182, 1-(2-methoxy-4-(4-methoxyphenoxy)phenyl)-N-4-pyrimidinyl-6-isoquinolinesulfonamide]
IC50 (Nav 1.5; in-vitro PX (PatchXpress) data): > 10 µM
IC50 (Nav 1.7; in-vitro PX (PatchXpress) data): 305 nM

COc1cccc(Oc2ccc(-c3nccc4cc(S(=O)(=O)Nc5ccncn5)ccc34)c(OC)c2)c1 [Example 183, 1-(2-methoxy-4-(3-methoxyphenoxy)phenyl)-N-4-pyrimidinyl-6-isoquinolinesulfonamide]
IC50 (Nav 1.5; in-vitro PX (PatchXpress) data): > 10 µM
IC50 (Nav 1.7; in-vitro PX (PatchXpress) data): 203 nM

COc1cc(-c2cccc(C(F)(F)F)c2)c(C#N)cc1-c1nccc2cc(S(=O)(=O)Nc3ccncn3)ccc12 [Example 184, 1-(2-cyano-5-methoxy-3′-(trifluoromethyl)-4-biphenylyl)-N-4-pyrimidinyl-6-isoquinolinesulfonamide]
IC50 (Nav 1.5; in-vitro PX (PatchXpress) data): > 30 µM
IC50 (Nav 1.7; in-vitro PX (PatchXpress) data): 36.3 nM

COc1cc(-c2ccc(C(F)(F)F)cc2)c(C#N)cc1-c1nccc2cc(S(=O)(=O)Nc3ccncn3)ccc12 [Example 185, 1-(2-cyano-5-methoxy-4′-(trifluoromethyl)-4-biphenylyl)-N-4-pyrimidinyl-6-isoquinolinesulfonamide]
IC50 (Nav 1.5; in-vitro PX (PatchXpress) data): 20.7 µM
IC50 (Nav 1.7; in-vitro PX (PatchXpress) data): 56 nM

COc1cc(-c2ccc(F)cc2)c(C#N)cc1-c1nccc2cc(S(=O)(=O)Nc3ccncn3)ccc12 [Example 186, 1-(2-cyano-4′-fluoro-5-methoxy-4-biphenylyl)-N-4-pyrimidinyl-6-isoquinolinesulfonamide]
IC50 (Nav 1.5; in-vitro PX (PatchXpress) data): > 10 µM
IC50 (Nav 1.7; in-vitro PX (PatchXpress) data): 150 nM

COc1cc(Oc2cc(F)ccc2F)ccc1-c1nccc2cc(S(=O)(=O)Nc3nncs3)ccc12 [Example 187, 1-(4-(2,5-difluorophenoxy)-2-methoxyphenyl)-N-1,3,4-thiadiazol-2-yl-6-isoquinolinesulfonamide]
IC50 (Nav 1.5; in-vitro PX (PatchXpress) data): > 10 µM
IC50 (Nav 1.7; in-vitro PX (PatchXpress) data): 99.4 nM

COc1cc(-c2cc(C)cnc2OC)ccc1-c1nccc2cc(S(=O)(=O)Nc3nncs3)ccc12 [Example 188, 1-(2-methoxy-4-(2-methoxy-5-methyl-3-pyridinyl)phenyl)-N-1,3,4-thiadiazol-2-yl-6-isoquinolinesulfonamide]
IC50 (Nav 1.5; in-vitro PX (PatchXpress) data): > 30 µM
IC50 (Nav 1.7; in-vitro PX (PatchXpress) data): 215 nM

COc1cc(-c2ccc(-c3nccc4cc(S(=O)(=O)Nc5nncs5)ccc34)c(OC)c2)c(F)cn1 [Example 189, 1-(4-(5-fluoro-2-methoxy-4-pyridinyl)-2-methoxyphenyl)-N-1,3,4-thiadiazol-2-yl-6-isoquinolinesulfonamide]
IC50 (Nav 1.5; in-vitro PX (PatchXpress) data): > 30 µM
IC50 (Nav 1.7; in-vitro PX (PatchXpress) data): 394 nM

COc1cc(Oc2cc(C)ccc2F)ccc1-c1nccc2cc(S(=O)(=O)Nc3nncs3)ccc12 [Example 190, 1-(4-(2-fluoro-5-methylphenoxy)-2-methoxyphenyl)-N-1,3,4-thiadiazol-2-yl-6-isoquinolinesulfonamide]
IC50 (Nav 1.5; in-vitro PX (PatchXpress) data): > 10 µM
IC50 (Nav 1.7; in-vitro PX (PatchXpress) data): 243 nM

COc1cc(Oc2ccc(C)c(F)c2)ccc1-c1nccc2cc(S(=O)(=O)Nc3nncs3)ccc12 [Example 194, 1-(4-(3-fluoro-4-methylphenoxy)-2-methoxyphenyl)-N-1,3,4-thiadiazol-2-yl-6-isoquinolinesulfonamide]
IC50 (Nav 1.5; in-vitro PX (PatchXpress) data): > 10 µM
IC50 (Nav 1.7; in-vitro PX (PatchXpress) data): 133 nM

COc1cc(-c2ccc(F)c(F)c2)c(C#N)cc1-c1nccc2cc(S(=O)(=O)Nc3ccncn3)ccc12 [Example 197, 1-(2-cyano-3′,4′-difluoro-5-methoxy-4-biphenylyl)-N-4-pyrimidinyl-6-isoquinolinesulfonamide]
IC50 (Nav 1.5; in-vitro PX (PatchXpress) data): > 10 µM
IC50 (Nav 1.7; in-vitro PX (PatchXpress) data): 76 nM

COc1cc(-c2cc(F)cnc2OC)c(C)cc1-c1ncnc2cc(S(=O)(=O)Nc3ccon3)ccc12 [Example 198, 4-(4-(5-fluoro-2-methoxy-3-pyridinyl)-2-methoxy-5-methylphenyl)-N-3-isoxazolyl-7-quinazolinesulfonamide]
IC50 (Nav 1.5; in-vitro PX (PatchXpress) data): > 10 µM
IC50 (Nav 1.7; in-vitro PX (PatchXpress) data): 183 nM

COc1cc(-c2ccc(F)c(F)c2)c(C)cc1-c1ncnc2cc(S(=O)(=O)Nc3ccon3)ccc12 [Example 199, 4-(3′,4′-difluoro-5-methoxy-2-methyl-4-biphenylyl)-N-3-isoxazolyl-7-quinazolinesulfonamide]
IC50 (Nav 1.5; in-vitro PX (PatchXpress) data): > 10 µM
IC50 (Nav 1.7; in-vitro PX (PatchXpress) data): 36 nM

COc1cc(-c2cc(F)cnc2OC)c(C#N)cc1-c1ncnc2cc(S(=O)(=O)Nc3ccon3)ccc12 [Example 201, 4-(5-cyano-4-(5-fluoro-2-methoxy-3-pyridinyl)-2-methoxyphenyl)-N-3-isoxazolyl-7-quinazolinesulfonamide]
IC50 (Nav 1.5; in-vitro PX (PatchXpress) data): > 10 µM
IC50 (Nav 1.7; in-vitro PX (PatchXpress) data): 424 nM

COc1cc(-c2cc(F)cc(F)c2)c(C#N)cc1-c1ncnc2cc(S(=O)(=O)Nc3ccon3)ccc12 [Example 202, 4-(2-cyano-3′,5′-difluoro-5-methoxy-4-biphenylyl)-N-3-isoxazolyl-7-quinazolinesulfonamide]
IC50 (Nav 1.5; in-vitro PX (PatchXpress) data): > 10 µM
IC50 (Nav 1.7; in-vitro PX (PatchXpress) data): 46 nM
